# Test results published in US20110079775A1, “Solution Processable Organic Semiconductors” (priority 2008, published 2011).
# Assay type: physicochemical
# Experimental: The solubility of B4MP-TIPS-An, which was synthesized in Example 1, was measured in various solvents at room temperature. This small molecule semiconductor had moderate solubility in n-butylbenzene (about 1.0 weight percent) and good solubility in dichlorobenzene (greater than 6.0 weight percent) and xylene (about 3.5 weight percent). The weight percent is based on the total solution weight.
smiles,measurement,value
"COc1ccc(-c2ccc3c(C#C[Si](C(C)C)(C(C)C)C(C)C)c4cc(-c5ccc(OC)cc5)ccc4c(C#C[Si](C(C)C)(C(C)C)C(C)C)c3c2)cc1 [Example B4MP-TIPS-An, 2,6-Bis(4-methoxy-phenyl)-9,10-bis-[(triisopropylsilyl)ethynyl]anthracene]",solubility in dichlorobenzene,greater than 6.0 weight percent
same,solubility in n-butylbenzene,about 1.0 weight percent
same,solubility in xylene,about 3.5 weight percent
